Data: patent US20110257225A1, “CYCLOHEXYLAMINE DERIVATIVE CONTAINING PHENYL GROUP, AND THERAPEUTIC AGENT FOR DISEASES ACCOMPANIED BY CENTRAL NERVOUS SYSTEM DISORDERS” (M'S Science Corporation, priority 2008, published 2011)

Key:
[1] = test system: rat cerebral cortex neural cells; experiment: Evaluation of neurite outgrowth-promoting activity in central neural cells; type: cell-based; conditions: 48 hours after addition, mean±standard error, control 18.0 ± 1.6
Protocol: The neurite outgrowth-promoting effects of the rat cerebral cortex neural cells on test substances were evaluated by the following method. The cerebral cortex neural cells were isolated from Wistar rats on the 18th day of pregnancy according to the method of Springer Neuroscience Lab Manual. That is to say, under ether anesthesia, a fetal rat was removed from the uterus of a pregnant rat on day 18, and transferred into a petri dish containing HBSS (manufactured by Gibco, Inc.) on ice. The cerebral cortex was cut out under a stereoscopic microscope. The cerebral cortex that had been cut out was dispersed with a neural cells dispersion solution (manufactured by Sumitomo Bakelite Co., Ltd.) to prepare rat cerebral cortex cells.
The resulting cerebral cortex cells were subjected to cell culture. Neurobasal medium (manufactured by Gibco, Inc.) supplemented with B27 Supplement (manufactured by Gibco, Inc.; Fin. 2% v/v), L-glutamine (manufactured by IBCO company; Fin. 0.5 mM) and GlutaMax I (manufactured by Gibco, Inc.; Fin. 0.5 mM) was used as the culture medium. The culture conditions were as follows: 5% CO2, 95% air, 100% humidity, and 37° C. The cells were inoculated to polylysine-coated 8-well slides (manufactured by IWAKI company) so as to have about 2×10^4 cells/well.
Compound [2], compound [3], compound [4], compound [5], compound [6], compound [7], compound [8], compound [9], compound [10], compound [11], and compound [12] (final•concentrations: 0.3 μM and 1.0 μM) were added as respective test substances to the culture solution at about 3 hours after the cell inoculation, and the culture solution with no additives was used as a control.
At 48 hours after the addition of the compounds, the cells were fixed by treatment with 4% paraformaldehyde (manufactured by Wako Pure Chemical Industries) at room temperature for about 30 minutes, and incubated with an anti-α-Tublin antibody (Anti-α-Tubulin Alexa Fluor 488 conjugate) recognizing a microtubule protein, at room temperature for one hour. After washing, the nucleus of the whole cell was stained with a nucleic acid-staining agent DAPI. The cells were observed under a fluorescence microscope at a magnification of 20 times. The stained cell image and the nuclear staining image in the same field of vision were imported into a computer as the image. Using an image analysis software (MethaMorph (registered trademark), Molecular Devises), the image imported into the computer was used to measure the “longest neurite length” that was the length of the longest neurite of individual cell in each field of vision. A cell having a length of the “longest neurite length” of 60 μm or more was defined as a “neurite forming cell” and the neurite forming activity was evaluated by the ratio of the “neurite forming cell” occupied in the number of the cells in the same field of vision. In other words, evaluation was performed by determining the rate of the neurite forming cells using the following equation:
Rate of neurite forming cells=[Number of neurite forming cells/Number of total cells in the same field of vision]×100

sigma receptor = biological target: T1, sigma receptor (Cavia porcellus, UniProt Q60492); experiment: Evaluation of affinity to sigma receptors ([3H](+)-pentazocine receptor binding, whole-brain membrane preparation); parameters: species or system guinea pig; conditions: for Ki: Ki from Dixon plot; for inhibition at 1 µM: compound concentration 1 × 10^−6 mol/L; for inhibition at 1 µM / inhibition at 0.1 µM / inhibition at 0.01 µM / inhibition at 0.001 µM / inhibition at 0.0001 µM / inhibition at 10 pM: [3H](+)-pentazocine, 25° C., 60 minutes, read-out: Inhibition rate (%); for inhibition at 0.1 µM: compound concentration 1 × 10^−7 mol/L; for inhibition at 0.01 µM: compound concentration 1 × 10^−8 mol/L; for inhibition at 0.001 µM: compound concentration 1 × 10^−9 mol/L; for inhibition at 0.0001 µM: compound concentration 1 × 10^−10 mol/L; for inhibition at 10 pM: compound concentration 1 × 10^−11 mol/L; for IC50: from logit-log regression of the dose-response curve
T1 construct: A membrane preparation as a sigma receptor obtained from the whole brain of guinea pigs; from tissue; host or cells: guinea pig whole brain membrane preparation
T1 sequence (Q60492 whole entry): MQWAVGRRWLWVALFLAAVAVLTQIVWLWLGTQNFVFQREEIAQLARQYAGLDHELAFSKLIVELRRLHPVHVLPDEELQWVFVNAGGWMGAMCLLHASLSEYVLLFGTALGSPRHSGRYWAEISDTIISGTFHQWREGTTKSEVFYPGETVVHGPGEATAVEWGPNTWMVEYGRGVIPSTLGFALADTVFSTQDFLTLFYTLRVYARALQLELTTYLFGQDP
Protocol: The following measurement of radioactivity was performed according to a usual method after the binding reaction had been carried out at 25° C. for 60 minutes.
The inhibition rate was determined by the equation of “100−binding rate”. The binding rate is represented by the following equation:
The IC50 of the test substance was calculated from a regression equation to the dose-response curve. That is to say, the ratio y=(B−N)/(B0−N) wherein a value of (B−N) is a specific binding radioactivity in the presence of a test substance, and a value of (B0−N) is a specific binding radioactivity in the absence of a test substance was first subjected to logit conversion and applied to a logit-log model plotted against the common logarithm of the test substance concentration to create a dose-response curve. […] The regression equation to the dose-response curve used is as follows: […]
Then, for each concentration of the positive substances, the reaction rate was measured while changing the concentration of the test substance in a range including the IC50 to create the Dixon plot, and the Ki value was calculated from the test substance concentration giving an intersection of these straight lines.

[2] = test system: rat cerebral cortex neural cells; experiment: Evaluation of neurite outgrowth-promoting activity in central neural cells; type: cell-based; conditions: cultured for 48 hours

SMILES	Neurite outgrowth-promoting activity (%) (rate of neurite forming cells, longest neurite 60 μm or more) ([1]; 0.3 μM)	Neurite outgrowth-promoting activity (%) (rate of neurite forming cells, longest neurite 60 μm or more) ([1]; 1.0 μM)	Ki (sigma receptor) [nM]	ratio of cells extending dendrites compared with no additives (FIG. 1) ([2]; final concentration 1 μM)	ratio of cells having neurites having the length two or more times the cell body diameter (FIG. 2) ([2]; final concentrations 0.1 μM, 1 μM, 10 μM)	inhibition at 1 µM (sigma receptor) [%]	inhibition at 0.1 µM (sigma receptor) [%]	inhibition at 0.01 µM (sigma receptor) [%]	inhibition at 0.001 µM (sigma receptor) [%]	inhibition at 0.0001 µM (sigma receptor) [%]	inhibition at 10 pM (sigma receptor) [%]	IC50 (sigma receptor) [nM]
CCN(CCSc1ccccc1)C1CCCCC1 [Compound [2], N-(2-(phenylthio)ethyl)-N-ethylcyclohexylamine]	37.4 ± 3.5	50.6 ± 1.4	1	obviously higher than that of the case of no additives	significantly increased							
c1ccc(SCCN2CCCC3CCCCC32)cc1 (stereo not shown) [Compound [3], N-(2-phenylthio)ethyldecahydroquinoline]	32.8 ± 5.3	52.6 ± 1.2	1.6			99.9	100	90.4	46.8	6.31	2.84	1.2
CCN(CCSc1cccc(C(F)(F)F)c1)C1CCCCC1 [Compound [4], N-[2-(3-trifluoromethyl)phenylthio]ethyl-N-ethylcyclohexylamine]	21.4 ± 2.2	39.4 ± 2.5	0.8			100	100	99.7	95.2	23.5	10.4	0.189
CCN(CCSc1cccc(C(F)F)c1)C1CCCCC1 [Compound [5], N-[2-(3-difluoromethyl)phenylthio]ethyl-N-ethylcyclohexylamine]	41.6 ± 3.3	50.8 ± 2.8				97.5	99.2	98.6	92.8	20.8	1.25	0.222
CCN(CCSc1ccc(OC)c(OC)c1)C1CCCCC1 [Compound [6], N-[2-(3,4-dimethoxy)phenylthio]ethyl-N-ethylcyclohexylamine]		40.3 ± 3.4	3.7			99.9	99.1	98.1	86.6	19.9	1.75	0.268
CCN(CCSc1ccc(F)cc1)C1CCCCC1 [Compound [7], N-[2-(4-fluorophenylthio)ethyl]-N-ethylcyclohexylamine]	30.2 ± 2.5	53.3 ± 1.4	0.8			97.3	96.3	90	44.5	3.43	0	1.23
CCN(CCCc1ccccc1)C1CCCCC1 [Compound [8], N-(3-phenylpropyl)-N-ethylcyclohexylamine]	59.9 ± 1.8	61.7 ± 2.0	8.7									
CCN(CCCc1ccc(OC)cc1)C1CCCCC1 [Compound [9], N-[3-(4-methoxyphenyl)propyl]-N-ethylcyclohexylamine]	31.4 ± 5.8	59.6 ± 1.0	10.5									
CCN(CCCc1ccc(F)cc1)C1CCCCC1 [Compound [10], N-[3-(4-fluorophenyl)propyl]-N-ethylcyclohexylamine]	26.8 ± 1.1	57.0 ± 3.0	8.5									
CCN(CCOc1ccc(F)cc1)C1CCCCC1 [Compound [11], N-ethyl-N-[2-(4-fluorophenoxy)ethyl]cyclohexylamine]	43.5 ± 2.4	50.7 ± 2.2	2.4									
CCN(CCOc1ccccc1)C1CCCCC1 [Compound [12], N-ethyl-N-(2-phenoxyethyl)cyclohexylamine]	44.2 ± 1.4	32.2 ± 1.0	6.6									
COc1ccc(CCN2CCN(CCCc3ccccc3)CC2)cc1OC [Reference compound, SA4503, reference compound]	44.6 ± 2.2	58.4 ± 1.8										
